Source: ChEMBL document CHEMBL5331044, “Recent advances in the development of EGFR degraders: PROTACs and LYTACs” (Eur J Med Chem, 2022)
Each block holds one compound with its values, some of them ahead of it.

Experiments:
NCI-H1975 [1] = assay: Antiproliferative activity against human NCI-H1975 cells expressing EGFR T790M mutant assessed as inhibition of EGFR phosphorylation; assay type: functional, cell-based
[2] = test system: Epidermal growth factor receptor (Homo sapiens), P00533 [UNDEFINED MUTATION]; assay: Inhibition of EGFR del19 mutant (unknown origin) assessed as fold change
BaF3 = assay: Antiproliferative activity against mouse BaF3 cells transfected with EGFR […]/T790M mutant assessed as inhibition of cell growth; assay type: functional, cell-based
[3] = molecular target: Epidermal growth factor receptor (Homo sapiens, UniProt P00533, EX19DEL); assay: Inhibition of EGFR del19 mutant in human HCC827 cells; assay type: cell-based
[4] = molecular target: T1, Epidermal growth factor receptor (Homo sapiens, UniProt P00533); assay: Inhibition of EGFR in human NCI-H1975 cells; assay type: cell-based
[5] = molecular target: T1, Epidermal growth factor receptor; assay: Inhibition of wild type EGFR in human A549 cells; assay type: cell-based
[6] = molecular target: T1, Epidermal growth factor receptor; assay: Inhibition of wild type EGFR in human A-431 cells; assay type: cell-based
NCI-H1975 [7] = assay: Antiproliferative activity against human NCI-H1975 cells expressing EGFR L858R/T790M mutant assessed as inhibition of cell growth; assay type: functional, cell-based
A-431 = assay: Antiproliferative activity against human A-431 cells expressing wild type EGFR assessed as inhibition of cell growth; assay type: functional, cell-based
[8] = molecular target: von Hippel-Lindau disease tumor suppressor/Receptor tyrosine-protein kinase erbB-2 (Homo sapiens, UniProt P04626+P40337); assay: PROTAC activity at VHL/HER2 in human SK-BR-3 cells assessed as protein degradation incubated for 24 hrs by immunoblot analysis; assay type: cell-based
[9] = molecular target: von Hippel-Lindau disease tumor suppressor/Epidermal growth factor receptor (Homo sapiens, UniProt P00533+P40337); assay: PROTAC activity at VHL/EGFR ins20 mutant in human HeLa cells assessed as protein degradation incubated for 24 hrs by immunoblot analysis; assay type: cell-based
von Hippel-Lindau disease tumor suppressor/Epidermal growth factor receptor, sequence (P00533 25-1210 limits assumed, stated change not applied): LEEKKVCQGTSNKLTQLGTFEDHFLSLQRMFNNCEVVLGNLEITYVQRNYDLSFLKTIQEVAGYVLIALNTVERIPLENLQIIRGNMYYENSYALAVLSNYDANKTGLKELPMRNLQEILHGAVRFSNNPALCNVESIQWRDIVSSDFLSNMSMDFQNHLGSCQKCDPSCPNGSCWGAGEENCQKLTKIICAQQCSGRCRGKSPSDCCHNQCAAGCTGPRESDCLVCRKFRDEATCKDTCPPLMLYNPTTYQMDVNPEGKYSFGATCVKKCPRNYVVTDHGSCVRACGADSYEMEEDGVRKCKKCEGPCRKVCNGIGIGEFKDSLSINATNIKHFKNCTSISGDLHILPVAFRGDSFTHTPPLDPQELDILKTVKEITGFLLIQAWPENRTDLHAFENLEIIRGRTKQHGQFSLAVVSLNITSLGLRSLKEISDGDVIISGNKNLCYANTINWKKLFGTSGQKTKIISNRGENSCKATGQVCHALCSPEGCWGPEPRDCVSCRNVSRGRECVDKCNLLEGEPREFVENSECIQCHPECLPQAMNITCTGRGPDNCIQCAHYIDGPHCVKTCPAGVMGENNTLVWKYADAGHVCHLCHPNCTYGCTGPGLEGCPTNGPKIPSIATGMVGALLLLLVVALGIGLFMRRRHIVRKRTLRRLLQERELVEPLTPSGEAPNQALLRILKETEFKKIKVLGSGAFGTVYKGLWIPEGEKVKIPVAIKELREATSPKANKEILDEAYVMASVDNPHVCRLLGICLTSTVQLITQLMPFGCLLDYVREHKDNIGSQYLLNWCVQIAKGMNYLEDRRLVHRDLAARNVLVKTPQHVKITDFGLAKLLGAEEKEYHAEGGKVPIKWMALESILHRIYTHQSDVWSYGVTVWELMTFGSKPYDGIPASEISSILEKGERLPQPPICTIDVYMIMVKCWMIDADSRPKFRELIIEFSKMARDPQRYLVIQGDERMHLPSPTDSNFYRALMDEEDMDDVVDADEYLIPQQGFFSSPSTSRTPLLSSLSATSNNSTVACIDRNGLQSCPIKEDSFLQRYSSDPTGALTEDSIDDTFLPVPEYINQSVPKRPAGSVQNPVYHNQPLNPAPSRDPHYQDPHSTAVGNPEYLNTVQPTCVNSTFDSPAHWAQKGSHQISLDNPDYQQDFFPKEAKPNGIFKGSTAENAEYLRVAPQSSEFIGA
von Hippel-Lindau disease tumor suppressor/Epidermal growth factor receptor, sequence (P40337 whole entry, stated change not applied): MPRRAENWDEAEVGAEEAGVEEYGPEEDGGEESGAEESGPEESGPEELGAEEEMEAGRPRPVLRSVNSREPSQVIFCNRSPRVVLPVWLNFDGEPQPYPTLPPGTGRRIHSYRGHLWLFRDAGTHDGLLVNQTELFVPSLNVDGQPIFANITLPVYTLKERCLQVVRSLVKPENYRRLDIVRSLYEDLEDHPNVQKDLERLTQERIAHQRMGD

T1 sequence (P00533 whole entry): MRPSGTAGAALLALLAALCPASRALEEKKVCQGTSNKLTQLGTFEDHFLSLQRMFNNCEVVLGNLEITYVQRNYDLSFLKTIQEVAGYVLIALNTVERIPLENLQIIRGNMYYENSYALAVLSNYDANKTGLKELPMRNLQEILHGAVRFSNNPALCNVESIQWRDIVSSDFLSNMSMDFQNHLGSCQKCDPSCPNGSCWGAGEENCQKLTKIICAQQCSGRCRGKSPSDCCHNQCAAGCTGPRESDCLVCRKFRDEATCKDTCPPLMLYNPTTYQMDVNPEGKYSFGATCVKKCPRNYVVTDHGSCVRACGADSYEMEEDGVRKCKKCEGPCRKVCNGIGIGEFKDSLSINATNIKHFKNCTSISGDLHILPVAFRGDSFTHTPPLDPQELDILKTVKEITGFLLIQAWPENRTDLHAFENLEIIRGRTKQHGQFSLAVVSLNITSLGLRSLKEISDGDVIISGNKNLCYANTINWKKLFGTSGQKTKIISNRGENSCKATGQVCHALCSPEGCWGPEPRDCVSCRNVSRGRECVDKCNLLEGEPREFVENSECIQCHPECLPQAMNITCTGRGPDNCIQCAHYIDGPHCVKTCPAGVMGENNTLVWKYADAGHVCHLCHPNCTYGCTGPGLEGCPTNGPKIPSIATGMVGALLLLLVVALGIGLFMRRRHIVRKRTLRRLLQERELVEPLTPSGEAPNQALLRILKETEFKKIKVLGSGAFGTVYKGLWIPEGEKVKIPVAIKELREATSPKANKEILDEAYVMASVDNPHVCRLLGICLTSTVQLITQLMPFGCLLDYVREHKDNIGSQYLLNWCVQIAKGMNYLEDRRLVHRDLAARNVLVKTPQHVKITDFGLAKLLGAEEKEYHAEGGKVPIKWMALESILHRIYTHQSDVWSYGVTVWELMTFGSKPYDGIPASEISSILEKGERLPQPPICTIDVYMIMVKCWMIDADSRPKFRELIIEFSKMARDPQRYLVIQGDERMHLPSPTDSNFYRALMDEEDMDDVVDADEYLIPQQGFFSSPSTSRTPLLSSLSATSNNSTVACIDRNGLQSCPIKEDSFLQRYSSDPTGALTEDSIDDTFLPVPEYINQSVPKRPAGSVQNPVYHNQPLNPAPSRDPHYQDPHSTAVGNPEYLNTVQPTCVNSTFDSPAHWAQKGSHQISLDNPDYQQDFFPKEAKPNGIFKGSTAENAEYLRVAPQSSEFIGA
Epidermal growth factor receptor (Homo sapiens, UniProt P00533, EX19DEL), sequence (P00533 whole entry, looked up, stated change not applied): as the sequence (P00533 whole entry) above
Epidermal growth factor receptor (Homo sapiens), P00533 [UNDEFINED MUTATION], sequence (P00533 whole entry, looked up, stated change not applied): as the sequence (P00533 whole entry) above

IC50 (NCI-H1975 [1]): 93 nM
Structure (SMILES): CN(C)C/C=C/C(=O)Nc1cc2c(Nc3ccc(F)c(Cl)c3)ncnc2cc1O[C@H]1CCOC1 [AFATINIB]

fold change (FC) [2]: 1000
Structure (SMILES): COc1cc2ncnc(N(Cc3ccc([N+](=O)[O-])cc3)c3ccc(F)c(Cl)c3)c2cc1OCCOCCOCCOCCC(=O)Nc1cccc2c1CN(C1CCC(=O)NC1=O)C2=O (stereo unspecified)

IC50 (BaF3): 96 nM
Structure (SMILES): O=C1CCC(N2C(=O)c3cccc(NCCOCCOCCOCCN4CCN(c5ccc(-c6ccc7c(c6)C(=O)N(C(C(=O)Nc6nccs6)c6ccccc6)C7)cn5)CC4)c3C2=O)C(=O)N1 (stereo unspecified)

IC50 [3]: 6 nM
IC50 [4]: > 20000 nM
IC50 [5]: > 20000 nM
IC50 [6]: > 20000 nM
Structure (SMILES): Cc1ncsc1-c1ccc(CNC(=O)[C@@H]2C[C@@H](O)CN2C(=O)[C@@H](NC(=O)CCCCCCCCCCn2cc(COc3cc4ncnc(Nc5ccc(F)c(Cl)c5)c4cc3NC(=O)/C=C/CN3CCCCC3)nn2)C(C)(C)C)cc1

IC50 (NCI-H1975 [7]): 2 nM
IC50 (A-431): 1900 nM
Structure (SMILES): O=C(Nc1nccs1)C(c1cc(F)ccc1O)N1Cc2ccccc2C1=O (stereo unspecified)

Structure (SMILES): Cc1ncsc1-c1ccc(CNC(=O)[C@@H]2C[C@@H](O)CN2C(=O)[C@@H](NC(=O)COCCOCCOc2ccc(-c3ccc4ncnc(Nc5ccc(OCc6cccc(F)c6)c(Cl)c5)c4c3)cc2)C(C)(C)C)cc1
DC50 [8]: 102 nM
DC50 [9]: 736 nM
